Laboratory results: patent US20090022712A1, “Compositions and Methods for Inhibiting Leukocyte Function” (UNIVERSITY OF VIRGINIA PATENT FOUNDATION, priority 2006, published 2009)
Where a SMILES comes first, the peptide text is derived from it.

Assays:
PMNs = assay: PMN oxidative burst (SOD-inhibitable reduction of cytochrome c); assay type: cell-based, human; settings: TNF-α-primed adherent PMNs; peptide 20 μg/ml, dhCB 1 μg/ml
Protocol: Oxidative burst of adherent PMNs was quantified by measuring the superoxide dismutase (SOD)-inhibitable reduction of cytochrome c as described (67). Briefly, PMNs (1.5×10^6/ml in HBSS-0.1% human serum albumin) were incubated in polypropylene tubes (1 hour; 37° C.) in a shaking water bath with or without the PAK peptide (20 μg/ml). PMNs were transferred to a fibrinogen-coated 96 well tissue culture plate. Cytochrome c (1.44 mg/ml) and catalase (0.062 mg/ml) (both Sigma) were added to wells with or without TNF-alpha (10 U/ml). Optical density was measured at indicated times against matched controls with SOD at 550 nm. Some PMNs were treated with dihydrocytochalasin B (dhCB) (1 μg/ml) to disrupt cell spreading on the surface (68). These samples served as negative control.

[1] = test system: LPS-induced PMN migration into the lung; assay: Murine model of acute lung injury: LPS-induced PMN trafficking in the lung; settings: application of the peptide in mice in vivo
Protocol: Wild type male C57B1/6 mice were obtained from Jackson Labs (Bar Harbor, Me.). […] Mice were eight to twelve weeks of age. Up to four mice were exposed to aerosolized LPS in a custom-built cylindrical chamber (20×9 cm) connected to an air nebulizer (MicroAir, Omron Healthcare, Vernon Hills, Ill.). […] Control mice were exposed to saline aerosol.
PMN recruitment into the different compartments of the lung pulmonary vasculature, interstitium, alveolar airspace) was assessed as described (81). […] After 5 minutes, mice were euthanized and non-adherent PMN were removed from the pulmonary vasculature by flushing 10 ml of PBS at 25 cm H20 through the spontaneously beating right ventricle. BAL was withdrawn and lungs were removed, minced, and digested in the presence of excess unlabeled anti-GR-1 to prevent possible binding of the injected antibody to extravascular PMN. A cell suspension was prepared by passing the digested lungs through a 70 μm cell strainer (BD Falcon, Bedford, Mass.). Total cells in BAL and lung were counted and percentage of PMNs determined by flow cytometry. […] In the lung, the expression of GR-1 was used to distinguish intravascular (CD45+7/4+GR-1^+) from interstitial (CD45+7/4+GR-1^−) PMNs, which were not reached by the injected antibody 82.

[2] = In vivo distribution of the PAK inhibitory peptide (flow cytometry); settings: for uptake of peptide by blood neutrophils: 12 hours before sample
Protocol: Six hours after injection, PAK-positive cells were identified by flow cytometry and their expression of CD31 and CD45 was determined. In additional experiments, mice inhaled LPS after an intraperitoneal injection of the fluorescent PAK peptide. Twelve hours later, PMNs were identified in blood, lungs, and BAL by their expression of CD45, GR-1, and 7/4 and investigated for their peptide uptake. In some experiments, lungs from these mice were fixed for confocal microscopy.

adaptor protein Nck = adaptor protein Nck (UniProt P16333); assay: cell-based or functional assay

C=C1[C@@H](C)[C@H]2[C@H](Cc3ccccc3)NC(=O)[C@]23OC(=O)CC[C@H](O)CCC[C@@H](C)C/C=C/[C@H]3[C@@H]1O [dihydrocytochalasin B]
adhesion-induced oxidative burst (superoxide production) (PMNs): reduced

CSCC[C@H](NC(=O)[C@@H](NC(=O)[C@H](CO)NC(=O)[C@@H](NC(=O)[C@H](CC(N)=O)NC(=O)[C@H](CCCNC(=N)N)NC(=O)[C@H](CCSC)NC(=O)[C@@H]1CCCN1C(=O)[C@@H]1CCCN1C(=O)[C@H](C)NC(=O)[C@@H]1CCCN1C(=O)[C@@H]1CCCN1C(=O)[C@H](CCCCN)NC(=O)CNC(=O)[C@H](CCCNC(=N)N)NC(=O)[C@H](CCCNC(=N)N)NC(=O)[C@H](CCCNC(=N)N)NC(=O)[C@H](CCC(N)=O)NC(=O)[C@H](CCCNC(=N)N)NC(=O)[C@H](CCCNC(=N)N)NC(=O)[C@H](CCCCN)NC(=O)[C@H](CCCCN)NC(=O)[C@H](CCCNC(=N)N)NC(=O)CNC(=O)[C@@H](N)Cc1ccc(O)cc1)[C@@H](C)O)[C@@H](C)O)C(=O)O [tat-PAK peptide] (H-YGRKKRRQRRRGKPPAPPMRNTSTM-OH; N-terminus and C-terminus assumed)
adverse side effects [1]: no apparent adverse side effects
PMNs in the BAL containing peptide ([2]; i.v. 1 mg, 12 h, LPS): almost all neutrophils found in the BAL are non-fluorescent
PMNs in the lung containing peptide ([2]; i.v. 1 mg, 12 h, LPS): one-third
uptake of peptide by blood neutrophils ([2]; i.v. 1 mg): taken up by neutrophils
uptake of peptide by blood neutrophils ([2]; i.v. 1 mg, listed as PAK peptide): most PMNs are PAK peptide+
share of peptide-positive lung cells that are CD45 positive ([2]; intraperitoneal, six hours after injection, lung cell suspension): 80%

tat-PAK peptide (inhibitory PAK peptide; first proline-rich domain of PAK fused to the HIV TAT transduction sequence)
F-actin content in CXCL1-stimulated human PMNs (flow cytometry) (adaptor protein Nck): 30 fold
